Laboratory results taken from patent US20040067955A1, “Pyridazinone compound and pharmaceutical use thereof” (Fujisawa Pharmaceutical Co. Ltd., priority 2002, published 2004).

How the values were obtained:
[1] = target: human A2a receptor (Homo sapiens, UniProt P29274); experiment: Adenosine antagonistic activity: radioligand binding with [3H]CGS 21680 (20 nM)
Description: (§1) The adenosine antagonistic activity [Ki(nM)] of the test compound was examined by radioligand binding techniques using 8-cyclopentyl-1,3-dipropylxanthine, [dipropyl-2,3-^3H (N)] ([^3H]DPCPX, 4.5 nM) for human A1 receptor and [^3H]CGS 21680 (20 nM) for human A2a receptor.

[2] = target: T1, human A1 receptor (Homo sapiens, UniProt P30542); experiment: Adenosine antagonistic activity: radioligand binding with [3H]DPCPX (4.5 nM)
T1 sequence (P30542 1-326): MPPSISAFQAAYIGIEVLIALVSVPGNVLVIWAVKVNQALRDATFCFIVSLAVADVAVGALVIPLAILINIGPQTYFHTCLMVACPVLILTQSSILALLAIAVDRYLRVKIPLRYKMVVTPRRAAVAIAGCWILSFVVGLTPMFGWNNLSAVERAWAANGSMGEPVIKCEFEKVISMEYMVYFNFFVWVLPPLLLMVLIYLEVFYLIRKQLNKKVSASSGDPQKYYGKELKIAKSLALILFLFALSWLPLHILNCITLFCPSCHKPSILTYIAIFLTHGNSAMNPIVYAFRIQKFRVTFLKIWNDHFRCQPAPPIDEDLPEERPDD
Description: as §1

[3] = system: ddY mice; experiment: Anticatalepsy activity in mouse (haloperidol-induced catalepsy, bar test); assay type: in vivo; conditions: test compound 3.2 mg/kg orally, ddY mice (n=7); haloperidol 0.32 mg/kg i.p. 30 min later; measured 30 min after injection
Description: The test compound (3.2 mg/kg) was administered orally with ddY mice (n=7). Then, haloperidol (0.32 mg/kg) was injected intraperitoneally 30 min. after the administration of the compound. Thirty min. After the injection, the cataleptic responses of mice were measured. The forelimbs of each mouse were placed on a 3 cm high, 3 mm wide horizontal bar, and the duration of cataleptic posture was measured for up to 30 sec.

Sequence of human A2a receptor (P29274 whole entry): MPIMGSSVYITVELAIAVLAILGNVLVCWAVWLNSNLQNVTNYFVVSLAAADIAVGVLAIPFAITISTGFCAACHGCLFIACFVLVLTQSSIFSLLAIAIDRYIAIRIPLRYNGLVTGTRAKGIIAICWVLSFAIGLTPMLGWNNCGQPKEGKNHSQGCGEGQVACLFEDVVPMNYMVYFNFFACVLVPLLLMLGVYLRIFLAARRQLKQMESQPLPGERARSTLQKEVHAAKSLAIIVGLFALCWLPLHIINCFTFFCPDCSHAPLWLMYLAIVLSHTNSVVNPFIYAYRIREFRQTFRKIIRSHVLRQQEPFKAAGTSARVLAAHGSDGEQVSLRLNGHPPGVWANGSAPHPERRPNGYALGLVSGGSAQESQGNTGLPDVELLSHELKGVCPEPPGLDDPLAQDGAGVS

| Structure (SMILES) | melting point [°C] | further results |
| --- | --- | --- |
| CC(C)n1nc(-c2cc(-n3cccc3)cnc2-c2ccccc2)ccc1=O [Example 29, 2-isopropyl-6-[2-phenyl-5-(1H-pyrrol-1-yl)-3-pyridyl]-3(2H)-pyridazinone] | 189 to 190 |  |
| CC(C)n1nc(-c2cc(Br)c(N)nc2-c2ccccc2)ccc1=O [Example 33, 6-(6-amino-5-bromo-2-phenyl-3-pyridyl)-2-isopropyl-3(2H)-pyridazinone] | 174 to 176 | Ki [1]: 0.91 nM; Ki [2]: 0.41 nM |
| CC(C)n1nc(-c2cc(-c3ccccc3)c(N)nc2-c2ccccc2)ccc1=O [Example 36, 6-(6-amino-2,5-diphenyl-3-pyridyl)-2-isopropyl-3 (2H)-pyridazinone] | 208 to 209 |  |
| CC(C)n1nc(-c2cc(C(=O)NCCO)cnc2-c2ccccc2)ccc1=O [Example 20, N-(2-Hydroxyethyl)-5-(1-isopropyl-6-oxo-1,6-dihydro-3-pyridazinyl)-6-phenylnicotinamide] | 165 to 167 |  |
| CC(C)n1nc(-c2cc(C(=O)N3CCN(C)CC3)cnc2-c2ccccc2)ccc1=O [Example 19, 2-Isopropyl-6-{5-[(4-methyl-1-piperazinyl)carbonyl]-2-phenyl-3-pyridyl}-3(2H)-pyridazinone] | 165 to 166 |  |
| CC(=O)c1cnc(-c2ccccc2)c(-c2ccc(=O)n(C(C)C)n2)c1 [Example 23, 6-(5-acetyl-2-phenyl-3-pyridyl)-2-isopropyl-3(2H)-pyridazinone] | 207 to 208 |  |
| CC(C)n1nc(-c2cc(N)cnc2-c2ccccc2)ccc1=O [Example 26, 6-(5-amino-2-phenyl-3-pyridyl)-2-isopropyl-3 (2H)-pyridazinone] | 147 to 148 |  |
| CC(C)n1nc(-c2cc(C(=O)NCc3ccccc3)cnc2-c2ccccc2)ccc1=O [Example 16, N-Benzyl-5-(1-isopropyl-6-oxo-1,6-dihydro-3-pyridazinyl)-6-phenylnicotinamide] | 205 to 206 |  |
| CC(C)n1nc(-c2cc(Cl)c(N)nc2-c2ccccc2)ccc1=O [Example 34, 6-(6-amino-5-chloro-2-phenyl-3-pyridyl)-2-isopropyl-3 (2H)-pyridazinone] | 207 to 208 |  |
| CNC(=O)c1cnc(-c2ccccc2)c(-c2ccc(=O)n(C(C)C)n2)c1 [Example 15, 5-(1-isopropyl-6-oxo-1,6-dihydro-3-pyridazinyl)-N-methyl-6-phenyl-nicotinamide] | 212 to 213 |  |
| CC(C)n1nc(-c2ccc(N)nc2-c2ccccc2)ccc1=O [Example 32, 6-(6-amino-2-phenyl-3-pyridyl)-2-isopropyl-3(2H)-pyridazinone] | 167 to 171 |  |
| COC(=O)c1cc(-c2ccc(=O)n(C(C)C)n2)c(-c2ccccc2)nc1OCC(N)=O [Example 50, Methyl 2-carbamoylmethoxy-5-(1-isopropyl-6-oxo-1,6-dihydro-3-pyridazinyl)-6-phenylnicotinate] | 183 to 184 |  |
| CC(C)n1nc(-c2cc(Cl)c(N)nc2-c2ccc(F)cc2)ccc1=O [Example 74, 6-[6-Amino-5-chloro-2-(4-fluorophenyl)-3-pyridyl]-2-isopropyl-3(2H)-pyridazinone] |  | Manifestation rate of catalepsy (number of mouse) [3]: 0/7; Ki [1]: 1.28 nM; Ki [2]: 6.42 nM |
| CC(C)n1nc(-c2cc(I)c(N)nc2-c2ccccc2)ccc1=O [Example 35, 6-(6-amino-5-iodo-2-phenyl-3-pyridyl)-2-isopropyl-3 (2H)-pyridazinone] | 196 to 197 |  |
| CC(C)n1nc(-c2cc(C#N)c(C(N)=O)nc2-c2ccccc2)ccc1=O [Example 12, 3-cyano-5-(1-isopropyl-6-oxo-1,6-dihydro-3-pyridazinyl)-6-phenyl-2-pyridinecarboxamide] | 221 to 223 |  |
| CC(C)n1nc(-c2cc(C#N)c(=O)[nH]c2-c2ccccc2)ccc1=O [Example 1, 5-(1-isopropyl-6-oxo-1,6-dihydro-3-pyridazinyl)-2-oxo-6-phenyl-1,2-dihydro-3-pyridine-carbonitrile] | > 250 |  |
| CC(C)n1nc(-c2ccc(=O)[nH]c2-c2ccccc2)ccc1=O [Example 30, 2-isopropyl-6-(6-oxo-2-phenyl-1,6-dihydro-3-pyridyl)-3(2H)-pyridazinone] | 107 to 109 |  |
| CC(C)n1nc(-c2cc(C(=O)O)c(=O)[nH]c2-c2ccccc2)ccc1=O [Example 13, 5-(1-isopropyl-6-oxo-1,6-dihydro-3-pyridazinyl)-2-oxo-6-phenyl-1,2-dihydro-3-pyridinecarboxylic acid] | 212 to 215 |  |

| Structure (SMILES) | melting point [°C] | further results |
| --- | --- | --- |
| CC(C)n1nc(-c2cc(C(=O)NCCN3CCOCC3)cnc2-c2ccccc2)ccc1=O [Example 22, 5-(1-Isopropyl-6-oxo-1,6-dihydro-3-pyridazinyl)-N-[2-(4-morpholinyl)ethyl]-6-phenylnicotinamide] | 162 to 163 |  |
| CC(C)n1nc(-c2cc(C#N)c(Cl)nc2-c2ccccc2)ccc1=O [Example 2, 2-chloro-5-(1-isopropyl-6-oxo-1,6-dihydro-3-pyridazinyl)-6-phenylnicotinonitrile] | 191 to 192 |  |
| CC(C)n1nc(-c2c(-c3ccccc3)nc(Cl)c(N)c2Cl)ccc1=O [Example 77, 6-(5-amino-4,6-dichloro-2-phenyl-3-pyridyl)-2-isopropyl-3(2H)-pyridazinone] | 186 to 188 |  |
| CC(C)n1nc(-c2cc(C#N)cnc2-c2ccccc2)ccc1=O [Example 8, 5-(1-isopropyl-6-oxo-1,6-dihydro-3-pyridazinyl)-6-phenylnicotinonitrile] | 133 to 135 |  |
| CC(C)n1nc(-c2cc(C(N)=O)c(Cl)nc2-c2ccccc2)ccc1=O [Example 5, 2-chloro-5-(1-isopropyl-6-oxo-1,6-dihydro-3-pyridazinyl)-6-phenylnicotinamide] | 199 to 200 |  |
| CC(C)n1nc(-c2cc(O)cnc2-c2ccccc2)ccc1=O [Example 53, 6-(5-hydroxy-2-phenyl-3-pyridyl)-2-isopropyl-3(2H)-pyridazinone] |  | Ki [1]: 3.87 nM; Ki [2]: 0.43 nM |
| CC(C)n1nc(-c2cc(C(=O)N3CCOCC3)cnc2-c2ccccc2)ccc1=O [Example 18, 2-Isopropyl-6-[5-(4-morpholinylcarbonyl)-2-phenyl-3-pyridyl]-3 (2H)-pyridazinone] | 132 to 133 |  |
| CC(C)n1nc(-c2cc(-c3nc(-c4ccccc4)cs3)c(N)nc2-c2ccccc2)ccc1=O [Example 40, 6-[6-Amino-5-(4-phenyl-1,3-thiazol-2-yl)-2-phenyl-3-pyridyl]-2-isopropyl-3(2H)-pyridazinone] |  | Ki [1]: 6.58 nM; Ki [2]: 4.44 nM |
| CC(C)n1nc(-c2ccc(OCC(N)=O)nc2-c2ccccc2)ccc1=O [Example 31, 2-{[5-(1-isopropyl-6-oxo-1,6-dihydro-3-pyridazinyl)-6-phenyl-2-pyridyl]oxy}acetamide] | 137 to 138 |  |
| COC(=O)c1nc(-c2ccccc2)c(-c2ccc(=O)n(C(C)C)n2)cc1C#N [Example 9, methyl 3-cyano-5-(1-isopropyl-6-oxo-1,6-dihydro-3-pyridazinyl)-6-phenyl-2-pyridinecarboxylate] | 136 to 138 |  |
| CC(C)n1nc(-c2cc(C(=O)NCc3ccccn3)cnc2-c2ccccc2)ccc1=O [Example 17, 5-(1-Isopropyl-6-oxo-1,6-dihydro-3-pyridazinyl)-6-phenyl-N-(2-pyridylmethyl)nicotinamide] | 193 to 194 |  |
| CC(=O)Nc1cnc(-c2ccccc2)c(-c2ccc(=O)n(C(C)C)n2)c1 [Example 28, N-[5-(1-Isopropyl-6-oxo-1,6-dihydro-3-pyridazinyl)-6-phenyl-3-pyridyl]acetamide] | 207 to 208 |  |
| CC(C)n1nc(-c2cc(C(N)=O)c(N)nc2-c2ccccc2)ccc1=O [Example 7, 2-Amino-5-(1-isopropyl-6-oxo-1,6-dihydro-3-pyridazinyl)-6-phenylnicotinamide] | > 250 |  |
| CC(C)n1nc(-c2cc(C#N)c(C(=O)O)nc2-c2ccccc2)ccc1=O [Example 11, 3-cyano-5-(1-isopropyl-6-oxo-1,6-dihydro-3-pyridazinyl)-6-phenyl-2-pyridinecarboxylic acid] | 196 to 198 |  |
| CC(C)n1nc(-c2cc(C(N)=O)cnc2-c2ccccc2)ccc1=O [Example 6, 5-(1-isopropyl-6-oxo-1,6-dihydro-3-pyridazinyl)-6-phenylnicotinamide] | 229 to 230 |  |
| COc1nc(-c2ccccc2)c(-c2ccc(=O)n(C(C)C)n2)cc1C#N [Example 10, 5-(1-isopropyl-6-oxo-1,6-dihydro-3-pyridazinyl)-2-methoxy-6-phenylnicotinonitrile] | 187 to 189 |  |
| CC(C)n1nc(-c2cc(-c3ncnn3C)c(N)nc2-c2ccccc2)ccc1=O [Example 122, 6-[6-amino-5-(1-methyl-1H-1,2,4-triazol-5-yl)-2-phenyl-3-pyridyl]-2-isopropyl-3 (2H)-pyridazinone] | 253 to 254 |  |
